In ChEMBL document CHEMBL1155752, “Isolation and structure of korolkoside, a bis-iridoid glucoside from Lonicera korolkovii” (J Nat Prod, 2001):

How the values were obtained:
Mus musculus [1] = test: Acute toxicity in ddY mouse at 2 mg/mouse, ip assessed as death after 12 hrs; format: organism-based; settings: in vivo
Mus musculus [2] = test: Acute toxicity in ddY mouse at 38 mg/mouse, ip assessed as death after 12 hrs; format: organism-based; settings: in vivo

C=C[C@H]1[C@H](O[C@@H]2O[C@H](CO)[C@@H](O)[C@H](O)[C@H]2O)OC=C(C(=O)OC)[C@H]1C[C@@H]1OC[C@H]2O[C@@H](O[C@@H]3OC=C(C(=O)OC)[C@@H](CC(OC)OC)[C@H]3C=C)[C@H](O)[C@@H](O)[C@@H]2O1 [KOROLKOSIDE]
Activity (Mus musculus [1]): Non-toxic

C=C[C@H]1[C@H](O[C@@H]2O[C@H](CO)[C@@H](O)[C@H](O)[C@H]2O)OC=C(C(=O)OC)[C@H]1CC(OC)OC [SECOLOGANIN DIMETHYL ACETAL]
Activity (Mus musculus [2]): Non-toxic
